Experimental findings from patent publication US20100256145A1, “USE OF KCNQ POTASSIUM CHANNEL OPENERS FOR REDUCING SYMPTOMS OF OR TREATING DISORDERS OR CONDITIONS WHEREIN THE DOPAMINERGIC SYSTEM IS DISRUPTED” (H. LUNDBECK A/S, priority 2007, published 2010) are described below.

In series [1] the test system is sensitised amphetamine response (hyperactivity) in mice. Kind of series: Sensitised behavioural response to amphetamine in mice. The format is in vivo. The conditions noted are these: Mus musculus; amphetamine-pretreated mice; s.c. 30 min before D-amphetamine 1.25 mg/kg challenge; Std. Dev. in brackets; read-out: Inhibition of the sensitised amphetamine response, ED50. The method, then: (§1) Subjects. Male NMRI mice (Charles River) weighing approx. 35 g are used. […] 12 mice are used pr experimental group.
Experimental procedure. […] For the 17 days between the last day of pre-treatment and the test day, the animals are kept in their homecage receiving the care as described above. The experiment is performed under normal light conditions in an undisturbed room. The mice are treated with test substance or vehicle and placed individually in the test cages for 30 min. […] 5×8 infrared light sources and photocells interspaced by 4 cm monitor the locomotor activity. The light beams cross the cage 1.8 cm above the bottom of the cage.
(§2) Administration of compounds.
Data analyses. The total counts obtained in the 30 min test are averaged pr animal group and used for calculation of drug effects in the following manner: The average motility induced by an amphetamine challenge in amphetamine-pretreated animals is used as the sensitised response. The average motility induced by a vehicle challenge to vehicle-pretreated animals is used as a baseline motility response. […] Similarly an ED50 for inhibiting baseline motility is calculated by expressed the motility response in vehicle-pretreated, vehicle-challenged, drug-treated animals relative to the baseline motility response. A therapeutic index value is subsequently calculated by dividing the first ED50 by the second.

For another series, the system named is baseline motility. The series can be described thus: Baseline motility in mice (vehicle-pretreated, vehicle-challenged). The format is in vivo, mouse. The settings on record: s.c., Std. Dev. in brackets. The method, then:
as §1
Experimental procedure. All mice are pre-treated once daily for five days with either d-amphetamine sulphate (2.5 mg/kg s.c.) or saline (10 ml/kg). For the 17 days between the last day of pre-treatment and the test day, the animals are kept in their homecage receiving the care as described above. The experiment is performed under normal light conditions in an undisturbed room. The mice are treated with test substance or vehicle and placed individually in the test cages for 30 min. The mice are then challenged with D-amphetamine sulphate (1.25 mg/kg s.c.) or saline (5 ml/kg) and replaced in the test-cage and data acquisition is begun. 5×8 infrared light sources and photocells interspaced by 4 cm monitor the locomotor activity. The light beams cross the cage 1.8 cm above the bottom of the cage.
as §2
Data analyses. […] Similarly an ED50 for inhibiting baseline motility is calculated by expressed the motility response in vehicle-pretreated, vehicle-challenged, drug-treated animals relative to the baseline motility response. A therapeutic index value is subsequently calculated by dividing the first ED50 by the second.

In general, ED50 refers to the midpoint of the dose-response relation. For `Cc1nc(N2CCOCC2)nc(C)c1NC(=O)Cc1ccc(F)cc1` [N-(4,6-Dimethyl-2-morpholin-4-yl-pyrimidin-5-yl)-2-(4-fluoro-phenyl)-acetamide], the ED50 in series [1] is 0.4 mg/kg.

With `CCOC(=O)Nc1ccc(NCc2c(C)cc(C)cc2C)cc1N` [[2-Amino-4-(2,4,6-trimethyl-benzylamino)-phenyl]-carbamic acid ethyl ester], the “Inhibition of baseline motility, ED50” value with baseline motility is given as 4.3 mg/kg.
